Columns and labels:
[1] = biological target: T1, Serine/threonine-protein kinase ULK2 (Homo sapiens) (UniProt Q8IYT8); experiment: Inhibition of human ULK2 at 18.6 nM by HotSpot assay relative to control
T1 sequence (whole entry): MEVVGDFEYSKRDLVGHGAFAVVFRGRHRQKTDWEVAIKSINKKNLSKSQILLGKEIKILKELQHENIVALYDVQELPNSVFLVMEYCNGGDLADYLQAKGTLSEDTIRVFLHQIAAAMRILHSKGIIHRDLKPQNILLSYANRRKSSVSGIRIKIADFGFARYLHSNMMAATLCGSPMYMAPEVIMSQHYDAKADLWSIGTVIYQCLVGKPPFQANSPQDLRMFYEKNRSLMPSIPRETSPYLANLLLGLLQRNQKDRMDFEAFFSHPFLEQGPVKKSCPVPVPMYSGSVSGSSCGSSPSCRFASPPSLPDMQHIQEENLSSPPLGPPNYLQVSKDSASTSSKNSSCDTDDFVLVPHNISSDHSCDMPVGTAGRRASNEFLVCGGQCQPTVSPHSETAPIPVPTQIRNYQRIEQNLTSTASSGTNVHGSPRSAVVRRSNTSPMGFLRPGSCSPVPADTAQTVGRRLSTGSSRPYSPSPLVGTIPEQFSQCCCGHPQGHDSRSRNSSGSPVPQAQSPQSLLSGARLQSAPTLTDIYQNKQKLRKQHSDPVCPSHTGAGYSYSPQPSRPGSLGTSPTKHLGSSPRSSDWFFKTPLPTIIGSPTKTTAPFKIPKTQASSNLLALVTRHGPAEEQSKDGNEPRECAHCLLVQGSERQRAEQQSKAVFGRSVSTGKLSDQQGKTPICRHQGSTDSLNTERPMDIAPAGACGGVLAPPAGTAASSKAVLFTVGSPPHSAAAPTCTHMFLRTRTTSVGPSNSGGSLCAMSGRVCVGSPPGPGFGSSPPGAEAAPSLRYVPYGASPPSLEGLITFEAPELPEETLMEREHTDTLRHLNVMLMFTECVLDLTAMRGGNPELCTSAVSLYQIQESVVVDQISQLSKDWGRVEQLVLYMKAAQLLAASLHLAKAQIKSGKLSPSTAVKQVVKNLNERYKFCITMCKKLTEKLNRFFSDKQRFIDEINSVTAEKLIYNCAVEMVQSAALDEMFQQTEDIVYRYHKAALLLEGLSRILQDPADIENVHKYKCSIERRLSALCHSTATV

[2] = biological target: CDK3/Cyclin E (Homo sapiens) (UniProt P24864+Q00526); experiment: Inhibition of human CDK3/cyclin E at 18.6 nM by HotSpot assay relative to control; format: protein-complex assay
[3] = biological target: Ephrin type-A receptor 5 (Homo sapiens) (UniProt P54756); experiment: Inhibition of human EPHA5 at 18.6 nM by HotSpot assay relative to control
[4] = biological target: Serine/threonine-protein kinase WNK2 (Homo sapiens) (UniProt Q9Y3S1); experiment: Inhibition of human WNK2 at 18.6 nM by HotSpot assay relative to control
[5] = biological target: Receptor tyrosine-protein kinase erbB-4 (Homo sapiens) (UniProt Q15303); experiment: Inhibition of human ERBB4 at 1.82 nM by HotSpot assay relative to control
[6] = biological target: Tyrosine-protein kinase ABL1 (Homo sapiens) (UniProt P00519); experiment: Inhibition of human ABL1 at 1.82 nM by HotSpot assay relative to control
[7] = biological target: PAS domain-containing serine/threonine-protein kinase (Homo sapiens) (UniProt Q96RG2); experiment: Inhibition of human PASK at 1.82 nM by HotSpot assay relative to control
[8] = biological target: Ephrin type-A receptor 4 (Homo sapiens) (UniProt P54764); experiment: Inhibition of human EPHA4 at 1.82 nM by HotSpot assay relative to control
[9] = biological target: T2, Ephrin type-A receptor 8 (Homo sapiens) (UniProt P29322); experiment: Inhibition of human EPHA8 at 1.82 nM by HotSpot assay relative to control
T2 sequence (whole entry): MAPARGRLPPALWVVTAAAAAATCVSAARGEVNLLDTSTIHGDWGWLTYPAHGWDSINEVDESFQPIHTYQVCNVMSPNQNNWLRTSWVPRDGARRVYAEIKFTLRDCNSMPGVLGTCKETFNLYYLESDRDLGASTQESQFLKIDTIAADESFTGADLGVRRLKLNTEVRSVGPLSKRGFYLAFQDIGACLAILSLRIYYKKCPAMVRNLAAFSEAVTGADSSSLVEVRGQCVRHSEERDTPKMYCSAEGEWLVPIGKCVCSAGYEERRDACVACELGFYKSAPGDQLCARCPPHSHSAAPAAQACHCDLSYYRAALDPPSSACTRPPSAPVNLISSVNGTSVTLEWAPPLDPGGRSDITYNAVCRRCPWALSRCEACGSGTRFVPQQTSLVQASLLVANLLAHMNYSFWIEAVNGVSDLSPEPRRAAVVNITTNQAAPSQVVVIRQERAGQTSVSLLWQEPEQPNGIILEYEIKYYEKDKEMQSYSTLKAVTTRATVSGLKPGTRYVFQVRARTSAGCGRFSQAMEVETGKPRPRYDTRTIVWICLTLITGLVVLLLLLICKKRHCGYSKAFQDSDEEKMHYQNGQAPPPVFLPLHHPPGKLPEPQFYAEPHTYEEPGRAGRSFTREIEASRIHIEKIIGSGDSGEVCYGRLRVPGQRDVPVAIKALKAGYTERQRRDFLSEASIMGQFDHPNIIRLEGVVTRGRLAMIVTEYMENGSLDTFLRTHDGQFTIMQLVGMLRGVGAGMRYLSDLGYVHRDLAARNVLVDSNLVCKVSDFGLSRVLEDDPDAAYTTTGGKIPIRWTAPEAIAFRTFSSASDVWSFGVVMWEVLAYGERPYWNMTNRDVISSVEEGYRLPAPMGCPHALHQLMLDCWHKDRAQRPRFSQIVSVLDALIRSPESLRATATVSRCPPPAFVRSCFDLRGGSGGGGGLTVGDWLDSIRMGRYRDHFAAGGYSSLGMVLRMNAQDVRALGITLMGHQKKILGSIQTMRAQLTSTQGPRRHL

PAS domain-containing serine/threonine-protein kinase (Homo sapiens), sequence (Q96RG2 whole entry, the tested form may be a part): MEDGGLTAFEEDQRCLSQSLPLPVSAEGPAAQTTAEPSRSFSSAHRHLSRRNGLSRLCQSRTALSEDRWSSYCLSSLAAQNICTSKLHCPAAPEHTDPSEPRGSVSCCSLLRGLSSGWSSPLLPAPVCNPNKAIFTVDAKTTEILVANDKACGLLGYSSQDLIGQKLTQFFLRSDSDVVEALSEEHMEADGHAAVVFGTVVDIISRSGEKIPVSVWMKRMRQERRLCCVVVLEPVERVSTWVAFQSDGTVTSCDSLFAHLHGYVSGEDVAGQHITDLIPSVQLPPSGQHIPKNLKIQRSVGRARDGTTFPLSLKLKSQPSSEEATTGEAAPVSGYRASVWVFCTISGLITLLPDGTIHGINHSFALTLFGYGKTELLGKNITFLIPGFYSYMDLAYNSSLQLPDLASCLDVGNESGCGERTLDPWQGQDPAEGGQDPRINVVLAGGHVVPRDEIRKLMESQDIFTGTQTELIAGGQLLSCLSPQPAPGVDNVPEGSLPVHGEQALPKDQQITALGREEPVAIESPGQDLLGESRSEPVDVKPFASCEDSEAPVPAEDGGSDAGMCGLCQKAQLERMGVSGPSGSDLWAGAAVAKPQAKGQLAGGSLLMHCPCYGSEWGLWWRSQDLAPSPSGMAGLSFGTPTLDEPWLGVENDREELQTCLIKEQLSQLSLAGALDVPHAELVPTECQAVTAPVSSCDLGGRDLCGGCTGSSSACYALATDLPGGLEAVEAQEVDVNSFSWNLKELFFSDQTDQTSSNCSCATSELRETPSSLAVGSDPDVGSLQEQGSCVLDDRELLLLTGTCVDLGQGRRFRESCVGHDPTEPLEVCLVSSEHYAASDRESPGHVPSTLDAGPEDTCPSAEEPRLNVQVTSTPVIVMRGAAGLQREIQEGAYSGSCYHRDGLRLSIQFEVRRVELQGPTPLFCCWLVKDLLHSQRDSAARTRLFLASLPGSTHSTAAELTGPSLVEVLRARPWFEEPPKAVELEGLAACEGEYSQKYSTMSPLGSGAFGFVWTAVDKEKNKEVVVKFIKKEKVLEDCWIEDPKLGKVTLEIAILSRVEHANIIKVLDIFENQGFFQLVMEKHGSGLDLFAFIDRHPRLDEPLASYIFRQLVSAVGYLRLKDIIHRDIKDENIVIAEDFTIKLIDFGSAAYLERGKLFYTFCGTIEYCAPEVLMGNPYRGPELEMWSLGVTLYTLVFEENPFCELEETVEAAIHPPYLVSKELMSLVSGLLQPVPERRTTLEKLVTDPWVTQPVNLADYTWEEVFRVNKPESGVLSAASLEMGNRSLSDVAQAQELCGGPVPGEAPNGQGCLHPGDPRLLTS
Receptor tyrosine-protein kinase erbB-4 (Homo sapiens), sequence (Q15303 whole entry): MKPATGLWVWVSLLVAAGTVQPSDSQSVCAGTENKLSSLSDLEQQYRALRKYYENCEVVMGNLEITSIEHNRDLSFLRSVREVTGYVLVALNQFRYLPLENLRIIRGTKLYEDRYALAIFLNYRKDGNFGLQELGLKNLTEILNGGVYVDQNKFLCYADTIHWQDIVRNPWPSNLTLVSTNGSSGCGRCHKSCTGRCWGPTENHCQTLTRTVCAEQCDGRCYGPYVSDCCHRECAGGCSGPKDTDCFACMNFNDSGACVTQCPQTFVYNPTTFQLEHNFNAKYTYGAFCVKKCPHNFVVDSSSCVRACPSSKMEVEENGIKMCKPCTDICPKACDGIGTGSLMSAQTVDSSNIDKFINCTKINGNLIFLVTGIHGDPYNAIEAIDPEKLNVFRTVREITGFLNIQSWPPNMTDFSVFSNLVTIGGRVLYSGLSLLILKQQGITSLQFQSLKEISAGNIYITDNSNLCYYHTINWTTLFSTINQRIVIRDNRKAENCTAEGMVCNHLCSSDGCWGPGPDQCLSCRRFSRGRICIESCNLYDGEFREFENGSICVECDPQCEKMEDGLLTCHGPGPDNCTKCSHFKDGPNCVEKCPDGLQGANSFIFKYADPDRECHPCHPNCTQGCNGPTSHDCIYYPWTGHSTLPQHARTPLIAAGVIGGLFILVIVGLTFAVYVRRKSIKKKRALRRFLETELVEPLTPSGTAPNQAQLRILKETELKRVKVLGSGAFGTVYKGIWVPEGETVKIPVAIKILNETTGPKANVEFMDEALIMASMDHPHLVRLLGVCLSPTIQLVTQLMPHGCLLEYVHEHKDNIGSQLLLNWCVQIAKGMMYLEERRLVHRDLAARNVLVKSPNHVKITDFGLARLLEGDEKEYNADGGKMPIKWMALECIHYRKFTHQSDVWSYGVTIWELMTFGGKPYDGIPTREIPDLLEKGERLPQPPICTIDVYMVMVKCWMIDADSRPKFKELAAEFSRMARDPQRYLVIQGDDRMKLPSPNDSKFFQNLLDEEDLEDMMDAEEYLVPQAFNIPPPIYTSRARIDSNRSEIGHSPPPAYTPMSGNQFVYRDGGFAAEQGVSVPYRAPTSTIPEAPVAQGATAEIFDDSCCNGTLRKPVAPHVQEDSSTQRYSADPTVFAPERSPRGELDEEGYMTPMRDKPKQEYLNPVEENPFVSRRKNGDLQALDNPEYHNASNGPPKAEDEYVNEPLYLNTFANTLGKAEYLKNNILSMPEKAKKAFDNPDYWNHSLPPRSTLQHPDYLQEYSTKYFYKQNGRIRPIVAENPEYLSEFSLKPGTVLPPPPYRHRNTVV
CDK3/Cyclin E (Homo sapiens), sequence (P24864 whole entry, looked up): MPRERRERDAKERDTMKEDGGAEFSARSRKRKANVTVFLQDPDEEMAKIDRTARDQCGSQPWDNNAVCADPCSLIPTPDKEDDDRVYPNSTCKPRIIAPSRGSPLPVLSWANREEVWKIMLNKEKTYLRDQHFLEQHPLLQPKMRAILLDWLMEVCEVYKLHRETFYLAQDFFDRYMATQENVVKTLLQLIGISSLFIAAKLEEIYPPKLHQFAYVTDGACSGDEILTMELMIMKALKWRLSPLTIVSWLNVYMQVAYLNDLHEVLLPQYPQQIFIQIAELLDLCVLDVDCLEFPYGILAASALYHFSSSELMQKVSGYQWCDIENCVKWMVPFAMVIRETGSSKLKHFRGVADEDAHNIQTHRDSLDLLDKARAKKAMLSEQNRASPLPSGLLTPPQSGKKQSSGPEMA
CDK3/Cyclin E (Homo sapiens), sequence (Q00526 whole entry, looked up): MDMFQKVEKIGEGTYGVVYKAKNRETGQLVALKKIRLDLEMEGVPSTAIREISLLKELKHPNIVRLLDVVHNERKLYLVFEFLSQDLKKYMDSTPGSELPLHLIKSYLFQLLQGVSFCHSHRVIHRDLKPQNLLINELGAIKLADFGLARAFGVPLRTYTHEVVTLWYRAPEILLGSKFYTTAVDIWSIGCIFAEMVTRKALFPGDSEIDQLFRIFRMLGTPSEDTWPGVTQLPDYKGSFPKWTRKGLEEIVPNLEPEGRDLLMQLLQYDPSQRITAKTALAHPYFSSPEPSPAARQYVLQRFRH
Ephrin type-A receptor 4 (Homo sapiens), sequence (P54764 whole entry): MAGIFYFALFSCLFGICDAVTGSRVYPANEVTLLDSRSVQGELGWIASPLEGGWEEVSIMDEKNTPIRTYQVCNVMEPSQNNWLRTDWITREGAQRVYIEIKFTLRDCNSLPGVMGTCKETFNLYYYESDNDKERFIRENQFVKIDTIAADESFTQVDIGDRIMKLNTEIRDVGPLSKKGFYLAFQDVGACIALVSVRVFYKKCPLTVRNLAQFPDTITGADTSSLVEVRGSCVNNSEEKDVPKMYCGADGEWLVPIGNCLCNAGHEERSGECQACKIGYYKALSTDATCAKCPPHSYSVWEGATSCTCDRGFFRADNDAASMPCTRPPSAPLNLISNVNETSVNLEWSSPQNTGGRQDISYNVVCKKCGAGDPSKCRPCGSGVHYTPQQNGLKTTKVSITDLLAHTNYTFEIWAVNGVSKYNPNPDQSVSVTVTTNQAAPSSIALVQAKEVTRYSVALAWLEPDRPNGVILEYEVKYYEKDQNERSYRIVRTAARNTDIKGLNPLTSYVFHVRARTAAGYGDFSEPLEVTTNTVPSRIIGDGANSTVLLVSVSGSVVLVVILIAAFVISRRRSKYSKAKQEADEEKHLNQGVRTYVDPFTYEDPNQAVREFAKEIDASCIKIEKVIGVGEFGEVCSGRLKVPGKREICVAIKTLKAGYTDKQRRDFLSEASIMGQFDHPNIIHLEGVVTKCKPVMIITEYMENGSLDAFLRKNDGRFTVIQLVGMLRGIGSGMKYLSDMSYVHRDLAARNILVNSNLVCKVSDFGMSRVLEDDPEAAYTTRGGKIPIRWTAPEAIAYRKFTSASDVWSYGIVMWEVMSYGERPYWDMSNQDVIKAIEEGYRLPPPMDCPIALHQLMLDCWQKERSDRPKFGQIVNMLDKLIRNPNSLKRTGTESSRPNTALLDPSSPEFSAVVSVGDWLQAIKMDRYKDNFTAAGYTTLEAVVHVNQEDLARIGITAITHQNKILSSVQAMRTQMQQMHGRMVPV

SMILES | inhibition [1] [%] | inhibition [2] [%] | inhibition [3] [%] | inhibition [4] [%] | inhibition [5] [%] | inhibition [6] [%] | inhibition [7] [%] | inhibition [8] [%] | inhibition [9] [%]
C[C@]1(O)C[C@@H](c2nc(-c3ccc4ccc(-c5ccccc5)nc4c3)c3c(N)nccn32)C1 | 2.12 | 0.86 | 0.67 | -2.52 |  |  |  |  | 
C[C@@]1(C(=O)Nc2ccc(F)nc2)CCCN1c1nc(Nc2cc(C3CC3)n[nH]2)c2cccn2n1 |  |  |  |  | 3.49 | 3.21 | -2.46 | -4.4 | -4.62
